These results are taken from patent US20100204277A1, “Compositions and Methods for Controlling Infestation” (HATCHTECH PTY LTD., priority 2007, published 2010).

Test [1] has as its system Lice (L) / Plutella (P) eggs. It is filed as in vivo. The following applies: 10 mM; Lice/Plutella: L P. The method, then: Log LD50 is obtained from the observed percentage ovicidal activity by conversion using a modified logit transformation. The observed percentage ovicidal activity values were transformed using the equation:
The additional 5% was used to allow a number to be calculated when 0% and 100% activity was observed. The BA is a crude correction to the log of the concentration at which the compounds were tested. Correlation between BA values and LD50 allows the calculation of Log LD50. […] A number of metal chelating agents with potential for inhibiting the remodelling events associated with thin membrane egg hatching in lice were analysed by comparing their percentage ovicidal activity in lice at different concentrations, their logit calculated pLD50, Pref pLD50, Activity class, clogP and molar refractivity were determined.

A further test deals with lice eggs. The test is described as follows: Standard lice egg-hatching assay with commercial head lice products. It counts as in vivo. The following applies: Example 10; products per manufacturer's recommendations, 1,10-phenanthroline 10 mM. The method, then:
The ovicidal properties of three major commercial head lice products were evaluated in the standard lice egg-hatching assay. The 3 commercial head lice products were as follows:
These three products were tested according to manufacturer's recommendations. Groups of eggs (24 hours old) were treated with the different products according to manufacturer's recommendations for the appropriate period of time (5-10 minutes) followed by a rinse for 1-2 minutes in 32° C. water. A positive controls (10 mM 1,10-phenanthroline) and two negative controls (no treatment and 20% Methanol) were also incorporated. Post exposure to the different products, the eggs were rinsed with warm water at 32° C. before being blotted dry on tissue paper and placed at 32° C., 70% RH and left to hatch. A second group of eggs, (48 hours old) were treated as previously described and also left to hatch. This process was repeated at 24 hour intervals on head lice eggs up to 120 hours post laying.
The ovicidal properties of two major commercial head lice products were evaluated in the standard lice egg-hatching assay. The 2 commercial head lice products were as follows:
These two products were tested according to manufacturer's recommendations. […]

A further test concerns head lice egg. The test is described as follows: Head lice egg hatching, time course. The following applies: 10 mM, 10 minutes. It counts as in vivo, Pediculus humanus capitus. The method, then: Tests were carried out to determine if metal chelating agent and metalloprotease inhibitor 1,10-phenanthroline could inhibit head lice egg (Pediculus humanus capitus) hatching as opposed to body lice. Head lice eggs were obtained by placing groups of both 1-2 adult male and 6-8 adult female head lice in separate wells in a 24 well petri dish containing cotton cloth. The petri dish was transferred to a humid incubator at 32° C., 70% RH for 12 hours to permit the female lice to lay their eggs. After 12 hours, all adult lice were removed from the petri dish wells and a series of time-course experiments conducted. A group of eggs (24 hr old) was treated for 10 minutes with 200 μL of a 10 mM solution of 1,10-phenanthroline. A control (ie no inhibitor treatment) group of eggs was also included. The eggs were removed from the inhibitor, blotted dry on tissue paper, placed at 32° C., 70% RH and left to hatch. A second group of eggs, (48 hours old) were treated as previously described and also left to hatch. This process was repeated at 24 hour intervals on head lice eggs up to 120 hours post laying.

For test [2], the system named is body lice eggs (clothing lice). The test is described as follows: In vitro lice egg hatching bioassay (standard lice assay, time course).
Protocol: Male and female clothing lice were fed on a rabbit as previously described. Female and male adult lice in a ratio of 3:1 were then transferred to a clean petri dish containing nylon cloth approximately 3×3 cm^2 and left for 12 hours at 32° C. During this period the female lice laid their eggs and attached them to the woven cloth. All lice would then be removed and the eggs permitted to incubate for the following 5 days. On Day 6 the cloth containing the eggs would be placed for 1 minute in a 1% sodium hypochlorite solution and then washed extensively. The eggs would then progress through to their final stages of development and hatch.
Lice eggs were laid onto cloth as described above. Five days post laying the cloth containing lice eggs was removed and immersed in a 1% sodium hypochlorite solution before being washed extensively in distilled water and blotted dry on tissue paper. Lice eggs were counted under a dissecting microscope and the cloth cut into batches of between 10-30 eggs with 3-5 replicates used per treatment. The cloth containing lice eggs was then immersed in a protease inhibitor solution for a period of 10 minutes, placed on tissue paper for 1 minute to dry before being transferred to a clean petri dish and incubated until hatching. […] Specifically a stock solution was prepared as follows: 1,10-phenanthroline (200 mM in methanol). In addition, the equivalent levels of the solvent were added to the non-inhibitor containing controls eggs to test for any buffer alone effects. Percentage hatch inhibition was calculated as the percentage reduction in egg hatch compared to the untreated control. The untreated control was assigned a percentage hatch of 100%.
A series of time-course experiments was conducted as a means of assessing inhibitors of lice egg hatching. […]
An experiment was undertaken to determine whether washing of the eggs would effect the inhibitory activity of 1,10-phenanthroline (Table 3). […] Percentage hatch inhibition was calculated as the percentage reduction in egg hatch compared to the untreated control. […]
The subject of test [3] is proteases in louse egg shell washings (ESW). The test is described as follows: Gelatine substrate SDS-PAGE of louse egg shell washings incubated with protease inhibitors. It counts as biochemical, Pediculus humanus humanus. On the procedure:
Within 12 hours of hatching 50 body lice eggs (Pediculus humanus humanus) were removed from the hair and placed in a 1 mL eppendorf tube. 20 μL of distilled water was added to the unhatched eggs and the preparation incubated for 30 minutes at 32° C. The 20 μL was recovered, freeze dried and stored at −70° C. This sample was referred to as sample 1. A number of other samples were also collected as described. Sample 2 was collected by removing the unhatched louse eggs from four hairs that were approximately 3 cm long, cutting the hair into 0.5 cm lengths, and placing them into a microfuge tube containing 20 μl of distilled water and incubating at 32° C. for 30 minutes. Sample 3 was collected as for sample 2, but the hair was placed in a tube containing 10 mL of 1% sodium hypochlorite for 1 minute followed by five 1 minute washes in 25 mL of distilled water to remove the sodium hypochlorite before being incubated in a microfuge tube containing 20 μl of distilled water and incubated as for Sample 2. Sample 4 was collected from unhatched eggs which were removed from the hair and washed with 1% sodium hypochlorite and incubated in 20 μl of distilled water in the same manner as the hair in Sample 3. Finally, Sample 5 was collected from eggs that were within 24 hrs of hatching which were washed with 1% sodium hypochlorite, then returned to the incubator at 32° C. until they hatched, the empty egg shells collected 0-2 hrs after egg-hatching, placed in a 1 mL microfuge tube containing 20 μl of distilled water and incubated as for Samples 1-4. For all samples 1-5 the 20 μl of fluid was recovered, freeze-dried and stored at −70° C. The washings recovered from these freshly hatched egg shells are referred to as egg-shell-washings (ESWs). In order to look for the presence of proteases present in these different samples, the freeze-dried samples were resuspended in 15 μL of non-reducing SDS sample buffer, centrifuged at 10,000 g for 2 minutes and the entire 15 μL loaded on to 10% gelatine substrate SDS-PAGE gels. Gels were run at 4° C. for 10 minutes at 10 mA followed by a further 25 minutes at 15 mA per gel. They were then incubated for 2×20 minutes in a 2.5% Triton-X 100 solution followed by a three hour incubation in 0.1M Tris/HCl containing 1 mM CaCl2 pH 8.0. Activity was detected as clear areas on the gel the result of protease activity degrading the gelatine within the gel.
Protease activity in the ESWs from louse eggs was also examined using two-dimensional gel electrophoresis. It was necessary to collect large numbers of freshly hatched egg shells. Following egglaying onto pieces of cloth, adult female lice were removed and the cloth with the eggs washed with 1% sodium hypochlorite as for collection of ESWs. The eggs were then returned to the incubator and permitted to hatch. Typically 100 to 500 hatched egg shells were collected (0-2 hours post hatching), placed in a microfuge tube containing 200 μl of distilled water, incubated and sample treated as described above. For analysis, ESWs were resuspended in rehydration buffer (8 M Urea, 2% 3-[(3-cholamidopropyl) dimethylammonio]-1-propanesulfonate 2% Immobilised pH gradient buffer 3-10 (Amersham Phamacia Biotech, Uppsala, Sweden)) and used to rehydrate 7 cm Immobiline Dry strips pH 3-10 (Amersham Bioscience) overnight. Strips were transferred to the Multiphor II (Pharmacia, Sweden) apparatus, electrophoresed in the first dimension at 200 V for 1 min, increasing to 3,500 V over the next 90 min followed by 65 min at 3,500 V, equilibrated (6 M urea, 30% glycerol, 50 mM Tris pH 8.8 and 2% SDS) and then run on a 10% SDS-PAGE gel containing 0.1% gelatin for the second dimension. The gel was then run and developed as previously described.
10% SDS-PAGE gelatine substrate gels were loaded with freeze dried egg shell washings from 100 lice eggs that had been resuspended in 50 μL of non-reducing sample buffer with samples run at 10 μL per lane. […]

Test [4] relates to Helicoverpa armigera eggs. The test is described as follows: Helicoverpa egg hatch. The following applies: 10 mM; Example 16; exposed 2-10 seconds; day 6 post laying.
Protocol: A range of concentrations were made up in water and the eggs placed in the solutions for approximately 2-10 seconds. The eggs which had been laid on cloth were then blotted dry and placed in an incubator at 26° C. for 3-4 days until hatch. Hatch rates were then assessed compared to a water only treated control (FIG. 5).
The compound was dissolved in 100% diethoxyglycol and diluted to a final concentration of 1% in water.
Several hundred Helicoverpa armigera eggs (Tatura×Toowoomba strains) were collected, that had been laid on fine mesh cloth over a 24 hour period.
Batches of Helicoverpa eggs were exposed to a specific inhibitor solution for between 2-10 seconds the excess solution drained by blotting with dry tissue paper. The egg masses were then placed in a humid box at 25 degrees until egg hatch. Control eggs were exposed to absolute methanol as described above. At day 6 post laying the eggs were assessed from the different treatments and the percentage of egg hatch determined relative to the control as shown in Table 12.
Batches of Helicoverpa eggs were then exposed to a specific inhibitor solution for between 2-10 seconds the excess solution drained by blotting with dry tissue paper. The egg masses were then placed in a humid box at 25° C. until egg hatch. Control eggs were exposed to absolute methanol as described above. At day 6 post laying the eggs were assessed from the different treatments and the percentage of egg hatch determined relative to the control as shown in Table 13.
For test [5], the system named is Plutella xylostella eggs (Waite strain). The test is described as follows: Plutella xylostella egg hatch (egg dip). The following applies: 10 mM; Example 12; dip 2-10 seconds; day 6 post laying.
Protocol: Several hundred Plutella xylostella eggs (Waite strain) were collected, that had been laid over a 24 hour period.
The egg masses were then placed in a humid box at 25° C. until egg hatch. Control eggs were exposed to absolute methanol as described above. At day 6 post laying the eggs were assessed from the different treatments and the percentage of egg hatch determined relative to the control as shown in Table 9.
Batches of Plutella eggs that were laid on either fine cloth or parafilm were dipped in a specific inhibitor solution for between 2-10 seconds, the excess solution was drained by blotting with dry tissue paper. The egg masses were then placed in a humid box at 25 degrees until egg hatch. Control eggs were exposed to absolute methanol as described above or not treated. At day 6 post laying the eggs were assessed from the different treatments and the percentage of egg hatch determined relative to the controls as shown in Tables 10 and 11.
The egg masses were then placed in a humid box at 25 degrees until egg hatch. Control eggs were exposed to absolute ethanol as described above. On day 6 post laying the eggs were assessed from the different treatments and the percentage of egg hatch determined relative to the control.

`c1cnc2c(c1)ccc1cccnc12` [1,10-phenanthroline]: the “Activity class 0 = inactive 1 = low 2 = med 3 = high” value in test [1] was 1 (a pLD50 value between 2 and 3 is considered weakly active (Class 1)). The “ovicidal activity across the different stages of lice egg hatching” value in the test on lice eggs is “highly effective”. In the test on head lice egg, the “egg hatching in head lice” value is reported as “significantly inhibit”. For the same molecule, the “inhibition of lice egg hatching following washing of eggs in water” value in test [2] (10 mM, 10 minutes, washed 1 minute) is reported as “still highly efficacious”. Further, the “inhibition of egg hatching in lice” value in test [2] (10 mM, eggs treated 5 days post laying, 10 minutes) is listed as “significantly inhibited”. Besides, the “egg hatching in lice” value in test [2] (2.5-10 mM, all time points examined) is given as “significantly inhibit”. Besides, the “protease activity of egg shell washings, two dimensional gel” value in test [3] (gel incubated with 10 mM 1,10-phenanthroline) was “general reduction in protease activity in the 25-30 kDa region and a clear reduction in the proteases present around the 50 kDa region and above 75 kDa”. Moreover, the “protease activity of egg shell washings compared to untreated controls” value in test [3] (gelatine SDS-PAGE strips, EDTA 10 mM, 1,10-phenanthroline 10 mM, PMSF 5 mM, E-64 10 μM, Pepstatin 5 μM, 3 hrs at 37° C.) is recorded as “reduction in protease activity”. In addition, the “% Inhibition of egg hatch relative to control” value is “able to inhibit” in test [4] and “significantly inhibit” in test [5].
